Results on three compounds are retold here after PMC8059561, “Lowered sensitivity of bitter taste receptors to β-glucosides in bamboo lemurs: an instance of parallel and adaptive functional decline in TAS2R16?” (Proceedings of the Royal Society B: Biological Sciences, 2021).

One experiment relates to TAS2R16 from H. aureus. Nature of the experiment: Calcium assay, HEK293T cells expressing H. aureus TAS2R16 with Gα16/gust44. The experiment is classed as cell-based, Hapalemur aureus.
Another experiment addresses TAS2R16 from L. catta (Lemur catta, UniProt A0A4Y1QJW7). Description: Calcium assay, HEK293T cells expressing L. catta TAS2R16 with Gα16/gust44. The settings on record: Calcium 4, mean ± s.e.m. The experiment is classed as cell-based.
The target of a further experiment is TAS2R16 from P. simus (Prolemur simus, UniProt A0A8C8ZSN9). Nature of the experiment: Calcium assay, HEK293T cells expressing P. simus TAS2R16 with Gα16/gust44. The experiment is classed as cell-based.
A further experiment concerns TAS2R16 from H. griseus. Description: Calcium assay, HEK293T cells expressing H. griseus TAS2R16 with Gα16/gust44. The experiment is classed as cell-based, Hapalemur griseus.
In experiment [1] the test system is anc-Bamboo lemur T140A /S144L TAS2R16. Nature of the experiment: Calcium assay, double mutant anc-Bamboo lemur T140A/S144L (reply to referee). The settings on record: figure not shown. The format is cell-based, last common ancestor (LCA) in bamboo lemurs.
The next experiment addresses T1, TAS2R16 P. simus L144S (Prolemur simus, UniProt A0A8C8ZSN9, L144S).
T1 sequence (A0A8C8ZSN9 1-301 L144S): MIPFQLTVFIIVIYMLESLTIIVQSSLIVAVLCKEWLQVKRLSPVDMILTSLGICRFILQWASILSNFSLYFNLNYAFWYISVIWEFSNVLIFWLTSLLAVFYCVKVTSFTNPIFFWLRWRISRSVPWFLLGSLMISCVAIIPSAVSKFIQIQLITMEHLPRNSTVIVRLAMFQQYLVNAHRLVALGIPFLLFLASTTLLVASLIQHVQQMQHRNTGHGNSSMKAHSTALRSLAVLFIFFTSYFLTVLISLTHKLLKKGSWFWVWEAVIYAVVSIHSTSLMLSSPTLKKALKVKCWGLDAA
Nature of the experiment: Calcium assay, single-point mutant P. simus L144S TAS2R16. The experiment is classed as cell-based.

Experiment [2] relates to TAS2R16 orthologue of Varecia variegata. Also noted: method as in Itoigawa et al., [8]. The settings on record: ref Itoigawa et al., [8]; cited from earlier work.
Where [3] appears, read: HEK293T, Gα16/gust44, Calcium 5, mean ± s.e.m.

The EC50 is the midpoint of the concentration-response curve.

Sequence of TAS2R16 from P. simus (A0A8C8ZSN9 1-301): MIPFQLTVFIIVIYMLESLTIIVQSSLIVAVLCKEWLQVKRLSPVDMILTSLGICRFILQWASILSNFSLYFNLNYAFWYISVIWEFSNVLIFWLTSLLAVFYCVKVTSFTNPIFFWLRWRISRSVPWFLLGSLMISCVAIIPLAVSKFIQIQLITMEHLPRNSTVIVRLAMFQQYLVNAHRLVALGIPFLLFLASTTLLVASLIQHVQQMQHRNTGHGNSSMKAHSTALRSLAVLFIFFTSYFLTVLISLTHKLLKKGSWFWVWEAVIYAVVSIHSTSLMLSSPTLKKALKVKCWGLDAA
Sequence of TAS2R16 from L. catta (A0A4Y1QJW7 1-301): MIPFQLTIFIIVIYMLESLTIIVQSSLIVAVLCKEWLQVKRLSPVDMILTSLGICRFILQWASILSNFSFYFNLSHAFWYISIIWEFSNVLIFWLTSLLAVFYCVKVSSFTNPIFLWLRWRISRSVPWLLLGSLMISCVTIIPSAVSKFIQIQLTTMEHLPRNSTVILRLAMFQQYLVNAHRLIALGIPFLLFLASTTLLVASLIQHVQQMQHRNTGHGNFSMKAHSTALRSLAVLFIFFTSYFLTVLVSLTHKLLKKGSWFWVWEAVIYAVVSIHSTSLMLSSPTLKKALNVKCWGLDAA

Consider `OC[C@H]1O[C@@H](Oc2ccc(O)cc2)[C@H](O)[C@@H](O)[C@@H]1O` [arbutin], for which the “response of TAS2R16 to ligand” value in the experiment on TAS2R16 from H. aureus, at TAS2R16 from P. simus (at the concentrations used in the assays) and in the experiment with TAS2R16 from H. griseus was “did not show any responses” each time. Moreover, the EC50 on TAS2R16 from L. catta came to 2.3 ± 0.21 mM.
Turning to `CC(C)(C#N)O[C@@H]1O[C@H](CO)[C@@H](O)[C@H](O)[C@H]1O` [linamarin], the “Amax (maximal signal amplitude, ΔF/F)” value with TAS2R16 from H. aureus (setting [3]) came out at 0.52 ± 0.041; in the experiment with TAS2R16 from H. griseus (setting [3]), 0.33 ± 0.031.
As for `OCc1ccccc1O[C@@H]1O[C@H](CO)[C@@H](O)[C@H](O)[C@H]1O` [salicin], the EC50 in the experiment on TAS2R16 from H. aureus (HEK293T, Gα16/gust44, Calcium 4, mean ± s.e.m.) was 6.8 ± 1.1 mM; at TAS2R16 P. simus L144S it was 4.3 ± 0.85 mM; at TAS2R16 from L. catta, 2.1 ± 0.38 mM; in experiment [2] it was 3.8 mM; at TAS2R16 from P. simus (HEK293T, Gα16/gust44, Calcium 4) it was over 40 mM. In addition, in experiment [1], the “responses of double mutant compared to single mutant (anc-Bamboo lemur S144L)” value is recorded as “did not show significant reduction”.
